In patent publication US20220305121A1, “N-ARYL SULFONAMIDE DERIVATIVES AS VACCINE ADJUVANT” (The Regents of the University of California, priority 2019, published 2022):
“Also recorded” adds a separate entry of the source.

How the values were obtained:
Format in all cases: cell-based
NF-κB = test: Measurement of NF-κB activation using THP1-Blue NF-κB cells (SEAP reporter, LPS as primary stimulus); conditions: for activity at 5 µM / NF-κB % Activation: compound 5 μM + LPS, 20 hour incubation, two point normalized: compound 1 + LPS = 200%, LPS = 100%, mean; for NF-κB activity (in words): with LPS
How it was run: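 THP1-Blue NF-κB cells (10^5/well, RPMI + 10% FBS) were co-treated with LPS 10 μg/mL and compound 5 μM (final, […]) for 20 h. Supernatant SEAP was read by QuantiBlue colorimetry at 630 nm. Two-point normalization set LPS alone to 100% and compound 1+LPS to 200%.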

ISRE = test: Measurement of ISRE activity in ISRE-bla THP-1 cells (FRET, IFN-α as primary stimulus); conditions: for activity at 5 µM / ISRE % Activation: compound 5 μM + IFN-α 100 U/mL, 16 hours, two point normalized: compound 1 + IFN-α = 200%, IFN-α = 100%, mean; for activity at 5 µM: read-out: ISRE % Activation; for ISRE activity (in words): with IFN-α
How it was run: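 Cells at 5×10^4/well in RPMI with 10% dialyzed FBS, treated with compound at 5 μM (0.05% DMSO) plus IFN-α at 100 U/mL (final) for 16 h. CCF4-AM substrate added for 3 h at room temperature. Background-subtracted 465/535 nm emission ratio, 2-point normalized: IFN-α alone 100%, compound 1+IFN-α 200%.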

THP-1 cells = test: Cell viability assay (MTT); conditions: for MTT % Viability: compound 5 μM, 18 hours incubation, normalized to DMSO as 100%, mean
How it was run: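 Cells at 10^5/well in RPMI with 10% FBS were exposed to compound at 5 μM final (0.05% DMSO) for 18 h. MTT (0.5 mg/mL) then added for 4-6 h, cells lysed overnight in SDS/HCl, absorbance read at 570 nm against 650 nm reference.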

NF-κB and ISRE = NF-κB and ISRE reporter assays (primary screens), statements in words for both assays; conditions: with LPS or IFN-α as primary stimulus, compared to compound 1
Experimental: THP1-Blue™ NF-κB cells were plated in 96-well plates at 10^5 cells/well in 100 μl RPMI supplemented with 10% fetal bovine serum (FBS, Omega Scientific, Inc., Tarzana, Calif.), 100 U/mL penicillin, 100 μg/ml streptomycin (Thermo Fisher Scientific) and Normocin (Invivogen). LPS was prepared in assay medium at a concentration of 20 μg/mL. Tested compounds were dissolved in DMSO at 1 mM as a stock solution and were further diluted in the LPS solution to a final concentration of 10 μM. 100 μL of this solution was then transferred to the plated cells to obtain a final concentration of LPS at 10 μg/mL and compound at 5 μM ([…]). The culture supernatants were harvested after a 20 hour incubation period, SEAP activity in the culture supernatants was determined by a colorimetric assay using QuantiBlue (Invivogen). Plate absorbance was read at 630 nm using a Tecan Infinite M200 plate reader (Männedorf, Switzerland). The SEAP concentration was directly proportional to NF-κB activity, which was 2-point normalized to yield activity of compound 1+LPS as 200% and activity for LPS as 100%.
ISRE-bla THP-1 cells were plated in 96-well plates at 5×10^4 cells/well in 50 μl RPMI supplemented with 10% dialyzed FBS (Atlanta Biologicals, Inc., GA), 0.1 mM nonessential amino acids, 1 mM sodium pyruvate, 100 U/mL penicillin and 100 μg/ml streptomycin. Type I IFN-α (R&D Systems, #11200-2) solution was prepared in assay medium at a concentration of 200 U/mL Tested compounds were dissolved in DMSO at 1 mM and were further diluted in the IFN-α solution to a final concentration of 10 μM. 50 μL of this solution was then transferred to the plated cells to obtain a final concentration of IFN-α at 100 U/mL and compound at 5 μM ([…]), The cells were incubated for 16 hours, after which 20 μL of 6×LiveBLAzer™ FRET B/G Substrate (CCF4-AM) mixture (prepared according to the manufacturer's instructions) was added to each well, Plates were incubated at room temperature in the dark for 3 hours. Fluorescence was measured on a Tecan Infinite M200 plate reader at an excitation wavelength of 405 nm, and emission wavelengths of 465 nm and 535 nm. Background values (cell free wells at the same fluorescence wavelength) were subtracted from the raw fluorescence intensity values and the emission ratios were calculated as the ratio of background subtracted fluorescence intensities at 465 nm to background subtracted fluorescence intensities at 535 nm. The ISRE activity values for these compounds were 2-point normalized to yield activity of compound 1+IFN-α as 200% and activity for IFN-α as 100%.
Measurement of NF-κB Activation Using THP1-Blue NF-κB Cells. THP1-Blue NF-κB cells were plated in 96-well plates at 10^5 cells/well in 100 μL of RPMI supplemented with 10% fetal bovine serum (FBS, Omega Scientific, Inc., Tarzana, Calif.), 100 U/mL penicillin, 100 μg/mL streptomycin (Thermo Fisher Scientific), and Normocin (Invivogen). LPS was prepared in assay medium at a concentration of 20 μg/mL. Tested compounds were dissolved in DMSO at 1 mM as a stock solution and were further diluted in the LPS solution to a final concentration of 10 μM. 100 μL of this solution was then transferred to the plated cells to obtain a final concentration of LPS at 10 μg/mL and compound at 5 μM ([…]). The culture supernatants were harvested after a 20 hours incubation period. SEAP activity in the culture supernatants was determined by a colorimetric assay using QuantiBlue (Invivogen). Plate absorbance was read at 630 nm using a Tecan Infinite M200 plate reader (Mannedorf, Switzerland). The SEAP concentration was directly proportional to NF-κB activity, which was two-point normalized to yield activity of compound 1+LPS as 200% and activity for LPS as 100%.
Measurement of ISRE Activity in ISRE-bla THP-1 Cells. […]

| EC50 (NF-κB; dose response in the presence of LPS) | EC50 (ISRE; Homo sapiens, THP-1, dose response in the presence of IFN-α) | Compound | activity at 5 µM (NF-κB) | NF-κB activity (in words) (NF-κB) | activity at 5 µM (ISRE; Homo sapiens, THP-1) | ISRE activity (in words) (ISRE) | MTT % Viability (THP-1 cells) | activity in NF-κB and ISRE assays (in words) (NF-κB and ISRE) | toxicity in MTT assays (in words) (THP-1 cells; 5 μM) | NF-κB % Activation (NF-κB) | ISRE % Activation (ISRE) | activity in NF-κB and ISRE assays (in words) (NF-κB and ISRE; hydrochloride) |
| --- | --- | --- | --- | --- | --- | --- | --- | --- | --- | --- | --- | --- |
|  |  | CCOc1ccc(S(=O)(=O)N(c2cc(OC)c(Cl)cc2OC)C(C)C)cc1 [Compound 40, N-(4-chloro-2,5-dimethoxyphenyl)-4-ethoxy-N-isopropylbenzenesulfonamide] | 76% | eliminated the NF-κB activity; also recorded: loss of NF-κB activity | 169% | retaining ISRE activity | 103.2% | inactive |  |  |  |  |
|  |  | CCOc1ccc(S(=O)(=O)N(CC(C)C)c2cc(OC)c(Cl)cc2OC)cc1 [Compound 41, N-(4-chloro-2,5-dimethoxyphenyl)-4-ethoxy-N-isobutylbenzenesulfonamide] | 175% |  | 193% |  | 76.7% | regained the activity in both the NF-κB and ISRE assays |  |  |  |  |
|  |  | C#CCOCCOCCOCCN(c1cc(OC)c(Cl)cc1OC)S(=O)(=O)c1ccc(OCC)cc1 [Compound 45, N-(4-chloro-2,5-dimethoxyphenyl)-4-ethoxy-N-(2-(2-(2-(prop-2-yn-1-yloxy)ethoxy)ethoxy)ethyl)benzenesulfonamide] | 107% |  | 130% |  | 73.7% | too long to retain activity |  |  |  |  |
|  |  | CCOc1ccc(S(=O)(=O)N(Cc2ccccc2)c2cc(OC)c(Cl)cc2OC)cc1 [Compound 46, N-benzyl-N-(4-chloro-2,5-dimethoxyphenyl)-4-ethoxybenzenesulfonamide] | 181% |  | 159% |  | 71.7% | potent analogs |  |  |  |  |
|  |  | CCOc1ccc(S(=O)(=O)N(CCc2ccccc2)c2cc(OC)c(Cl)cc2OC)cc1 [Compound 47, N-(4-chloro-2,5-dimethoxyphenyl)-4-ethoxy-N-phenethylbenzenesulfonamide] | 131% |  | 141% |  | 44% | potent analogs | somewhat higher toxicity |  |  |  |
|  |  | CCOC(=O)CN(c1cc(OC)c(Cl)cc1OC)S(=O)(=O)c1ccc(OCC)cc1 [Compound 49, Ethyl N-(4-chloro-2,5-dimethoxyphenyl)-N-((4-ethoxyphenyl)sulfonyl)glycinate] | 202% |  | 184% |  | 81.4% | retained dual NF-κB and ISRE activities |  |  |  |  |
|  |  | CCOc1ccc(S(=O)(=O)N(CCCO)c2cc(OC)c(Cl)cc2OC)cc1 [Compound 51, N-(4-chloro-2,5-dimethoxyphenyl)-4-ethoxy-N-(3-hydroxypropyl) benzenesulfonamide] |  |  |  |  | 68.5% | retained activity in both the assays |  | 219% | 178% |  |
|  |  | CCOc1ccc(S(=O)(=O)N(CCCNC(=O)OC(C)(C)C)c2cc(OC)c(Cl)cc2OC)cc1 [Compound 52, tert-Butyl (3-((N-(4-Chloro-2,5-dimethoxyphenyl)-4-ethoxyphenyl)sulfonamido)propyl)carbamate] |  |  |  |  | 75.6% | reduction in activity |  | 134% | 140% |  |
|  |  | CCNC(=O)CCCN(c1cc(OC)c(Cl)cc1OC)S(=O)(=O)c1ccc(OCC)cc1 [Compound 54, 4-((N-(4-chloro-2,5-dimethoxyphenyl)-4-ethoxyphenyl)sulfonamido)-N-ethylbutanamide] |  | retaining the NF-κB activity |  | reduction in ISRE activity | 78.2% | retained activity |  | 206% | 137% |  |
| 3.32 µM | 3.04 µM | CCOc1ccc(S(=O)(=O)N(CCCN)c2cc(OC)c(Cl)cc2OC)cc1.Cl [Compound 55, N-(3-aminopropyl)-N-(4-chloro-2,5-dimethoxyphenyl)-4-ethoxybenzenesulfonamide hydrochloride] | 189% |  | 182% |  | 71.0% |  |  |  |  | recovered; also recorded: less potent than compound 1; also recorded: retained activity even though slightly attenuated |
|  |  | CCOc1ccc(S(=O)(=O)N(CCCNC(=O)CCCCCNC(=O)c2ccc3c(c2)C(=O)OC32c3ccc(O)cc3Oc3cc(O)ccc32)c2cc(OC)c(Cl)cc2OC)cc1 [Compound 56, N-(6-((3-((N-(4-chloro-2,5-dimethoxyphenyl)-4-ethoxyphenyl)sulfonamido)propyl)amino)-6-oxohexyl)-3′,6′-dihydroxy-3-oxo-3H-spiro[isobenzofuran-1,9′-xanthene]-5-carboxamide] |  |  |  |  | 98.1% | completely inactive |  | 100% | 96% |  |
|  |  | CCOc1ccc(S(=O)(=O)N(CCCNC(=O)CCCC[C@H]2SC[C@H]3NC(=O)N[C@H]32)c2cc(OC)c(Cl)cc2OC)cc1 [Compound 58, N-(3-((N-(4-chloro-2,5-dimethoxyphenyl)-4-ethoxyphenyl)sulfonamido)propyl)-5-((3aR,4R,6aS)-2-oxohexahydro-1H-thieno[3,4-d]imidazol-4-yl)pentanamide] |  |  |  |  | 69.6% | equipotent to compound 1 |  | 195% | 175% |  |
|  |  | C#CCN(c1cc(OC)c(N=[N+]=[N-])cc1OC)S(=O)(=O)c1ccc(OCC)cc1 [Compound 62, N-(4-azido-2,5-dimethoxyphenyl)-4-ethoxy-N-(prop-2-yn-1-yl) benzenesulfonamide] |  |  |  |  | 73.4% | very potent |  | 217% | 182% |  |
